Laboratory results: patent US6387909B1, “Thienopyranecarboxamide derivatives” (Recordati S.A. Chemical and Pharmaceutical Company, priority 1999, dated 2002)

Tests used:
[1] = system: prostatic urethral contractions induced by noradrenaline; experiment: Urethral contractions induced by noradrenaline injection in anaesthetized dogs after intravenous administration; assay type: in vivo; conditions: dog, i.v.
Method: (§1) The experiments were performed according to the method of Imagawa et al. (J. Pharmacol. Methods, 22:103-111, 1989), with substantial modifications, as follows: adult male beagle dogs, weighing 8-10 kg, were anaesthetized with pentobarbital sodium (30 mg/kg i.v. and 2 mg/kg/h i.v.), intubated and spontaneously ventilated with room air. In order to monitor systemic blood pressure (BP), a polyethylene (PE) catheter was introduced into the aortic arch through the left femoral artery. A collateral of the left femoral vein was cannulated for infusion of anaesthetic, and the right femoral vein was cannulated for administration of compounds. For intraarterial (i.a.) injection of noradrenaline (NA), a PE catheter was introduced into the lower portion of the abdominal aorta via the right external iliac artery. Through such procedure, NA was selectively distributed to the lower urinary tract. A paramedian vertical suprapubic incision extending from the base of the pelvis to the mid-abdominal region was made and the bladder and the prostate were exposed. The bladder was manually emptied with a syringe. Prostatic urethral pressure was monitored with a Mikro-tip catheter (5F) introduced into the bladder via the external urethral meatus, and withdrawn until the pressure transducer was positioned in the prostatic region of the urethra. A ligature was secured between the neck of the bladder and urethra to isolate the response of the latter and to avoid any interaction with the bladder. Another ligature was put around the Mikro-tip catheter at the external meatus, to secure the catheter itself.
(§2) After a stabilizing period following the surgical procedure (30 minutes), in which arterial and prostatic urethral pressures were continuously monitored as basal values, i.a. administration of NA was made at intervals of 20 minutes.
(§3) The NA doses were chosen to produce an increase of at least 100% in urethral pressure. The test compounds were administered intravenously in a cumulative manner with intervals of 15-20 minutes between administrations. […]

[2] = molecular target: T1, recombinant α1a-adrenoceptor (Homo sapiens, UniProt P35348); experiment: Radioligand binding ([3H]prazosin) to cloned α1a adrenoceptor; conditions: read-out: Affinity (Ki) α1a
T1 construct: expressed in transfected cells
T1 sequence (P35348 1-466): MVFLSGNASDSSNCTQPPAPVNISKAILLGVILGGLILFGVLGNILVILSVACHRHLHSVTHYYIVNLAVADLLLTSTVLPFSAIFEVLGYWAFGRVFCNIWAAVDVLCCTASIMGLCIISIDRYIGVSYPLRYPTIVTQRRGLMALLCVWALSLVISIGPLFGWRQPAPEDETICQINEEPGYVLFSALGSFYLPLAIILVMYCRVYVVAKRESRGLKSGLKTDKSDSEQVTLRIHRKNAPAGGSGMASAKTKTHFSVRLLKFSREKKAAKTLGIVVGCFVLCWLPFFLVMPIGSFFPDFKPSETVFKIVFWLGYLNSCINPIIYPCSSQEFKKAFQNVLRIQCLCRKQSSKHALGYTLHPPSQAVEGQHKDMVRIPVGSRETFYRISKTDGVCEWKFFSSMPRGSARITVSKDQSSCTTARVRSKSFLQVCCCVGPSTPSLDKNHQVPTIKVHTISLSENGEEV
Method: (§4) Determination of affinity for cloned subtypes of the α1-adrenoceptor was performed in membranes from cells transfected by electroporation with DNA expressing the genes encoding each α1-adrenoceptor subtype.
(§5) Non-specific binding was determined in the presence of 10 μM phentolamine. Incubation was stopped by addition of ice-cold Tris buffer and rapid filtration through Schleicher & Schuell GF52 filters that had been pretreated with 0.2%-polyethyleneimine.
(§6) Data were expressed as mean of Ki.

[3] = molecular target: T2, recombinant α1d-adrenoceptor (Homo sapiens, UniProt P25100); experiment: Radioligand binding ([3H]prazosin) to cloned α1d adrenoceptor; conditions: read-out: Affinity (Ki) α1d
T2 construct: expressed in transfected cells
T2 sequence (P25100 1-572): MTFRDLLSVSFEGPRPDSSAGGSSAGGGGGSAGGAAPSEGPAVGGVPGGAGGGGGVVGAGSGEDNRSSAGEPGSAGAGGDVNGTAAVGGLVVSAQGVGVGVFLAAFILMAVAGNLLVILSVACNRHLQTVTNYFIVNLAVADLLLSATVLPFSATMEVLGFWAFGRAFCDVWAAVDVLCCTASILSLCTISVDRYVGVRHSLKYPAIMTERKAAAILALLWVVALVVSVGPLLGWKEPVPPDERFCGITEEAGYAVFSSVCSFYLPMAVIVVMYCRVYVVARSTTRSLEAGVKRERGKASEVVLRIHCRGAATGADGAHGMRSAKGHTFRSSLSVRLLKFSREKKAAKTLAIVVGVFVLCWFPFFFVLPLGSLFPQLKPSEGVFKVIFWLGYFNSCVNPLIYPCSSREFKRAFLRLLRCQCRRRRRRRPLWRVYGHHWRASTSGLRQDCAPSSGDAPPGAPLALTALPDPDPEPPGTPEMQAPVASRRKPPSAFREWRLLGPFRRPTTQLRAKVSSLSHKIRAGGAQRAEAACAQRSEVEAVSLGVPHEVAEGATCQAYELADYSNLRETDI
Method: as §4, §5, §6

diastolic blood pressure = experiment: Blood pressure in anaesthetized dogs after intravenous administration; assay type: in vivo; conditions: dog, i.v.
Method: as §1, §2, §3

COc1ccccc1N1CCN(CCCNC(=O)c2csc3c(=O)cc(-c4ccccc4)oc23)CC1 [Example 2, N-{3-[4-(2-Methoxyphenyl)-1-piperazinyl]propyl}-7-oxo-5-phenyl-7H-thieno[3,2-b]pyran-3-carboxamide]
UC ID50 NA (dose inhibiting by 50% the urethral contractions induced by noradrenaline) [1]: 0.0018 mg/kg | Ki [2]: 0.1 nM | Ki [3]: 2.46 nM | DBP ED25 (dose inducing a 25% decrease in diastolic blood pressure) (diastolic blood pressure): 0.0355 mg/kg

O=C(NCCCN1CCN(c2ccccc2OCC(F)(F)F)CC1)c1csc2c(=O)cc(-c3ccccc3)oc12 [Example 5, 7-Oxo-5-phenyl-N-{3-[4-[2-(2,2,2-trifluoroethoxy)phenyl]-1-piperazinyl]propyl}-7H-thieno[3,2-b]pyran-3-carboxamide]
UC ID50 NA (dose inhibiting by 50% the urethral contractions induced by noradrenaline) [1]: 0.0027 mg/kg | Ki [2]: 0.045 nM | Ki [3]: 1.01 nM | DBP ED25 (dose inducing a 25% decrease in diastolic blood pressure) (diastolic blood pressure): >1 mg/kg
